# Measured values as given in paper PMC4117522, “Proteasome Inhibitors Alter Levels of Intracellular Peptides in HEK293T and SH-SY5Y Cells” (PLoS ONE, 2014).
# Like-named read-outs stand apart in the source and are kept apart here.
# How the values were obtained:
# [1] = system: HEK293T cell aminopeptidase activity (Ala-AMC cleavage); assay: Aminopeptidase assay with Ala-AMC in HEK293T cell extracts; type: biochemical, human; settings: HEK293T cell extract; for residual amount of activity: 50 µM; for effect on cleavage of Ala-AMC: 10 µM inhibitor
# Experimental: (§1) All enzyme assays described below were performed in the linear range of the assay, as determined from time-course studies. HEK293T cells were lysed by sonication in 50 mM TrisHCl buffer, pH 7.5, containing 40 mM KCl, 5 mM MgCl2, 0.5 mM ATP, and 1 mM DTT (Buffer 1).
# (§2) To measure TPP2, the fluorescent substrate was Ala-Ala-Phe-AMC. Aminopeptidase (AP) assays were performed with Leu-AMC and Ala-AMC, which detect leucine aminopeptidase (LAP), puromycin-sensitive aminopeptidase (PSAP), and other enzymes. To measure the effect of aminopeptidase/proteasome inhibitors on cleavage of Ala-Ala-Phe-AMC and Leu-AMC, 1∶50 dilution of the cell extract was pre-incubated with the inhibitor and Buffer 1 for 30 min, followed by addition of 100 µM final concentration of the respective substrate. For Ala-AMC, the same dilution of the cell extract was pre-incubated with the inhibitor and 50 mM MOPS buffer, pH 7.5, containing 40 mM KCl, 5 mM MgCl2, 0.5 mM ATP, and 1 mM DTT (Buffer 2), followed by addition of 100 µM final concentration of the substrate. After incubation at 37°C for 1 hour, enzyme activity was quantified by fluorescence measurement of the substrate (380 nm excitation, 460 nm emission).
# (§3) Figure 7 Effect of aminopeptidase inhibitors on Ala-AMC and Leu-AMC cleavage. HEK 293T cell extract (panels A–D) or recombinant PSAP (panels E–F) were treated with increasing concentrations of bestatin or puromycin for 30 minutes followed by the addition of substrate and incubation for 1 hour. Enzyme activity was determined by fluorescence measurement of AMC and expressed as percentage enzyme activity relative to the control without inhibitor. (A) Bestatin inhibition of HEK293T cell extract assayed with Ala-AMC. (B) Bestatin inhibition of HEK293T cell extract assayed with Leu-AMC. (C) Puromycin inhibition of HEK293T cell extract assayed with Ala-AMC. (D) Puromycin inhibition of HEK293T cell extract assayed with Leu-AMC. (E) Puromycin inhibition of purified PSAP assayed with Ala-AMC. (F) Puromycin inhibition of purified PSAP assayed with Leu-AMC. Error bars show standard error of mean (n = 4), points without error bars had error ranges smaller than the symbol size. Statistical analysis was performed using Student’s t-test: *, p≤0.05; **, p≤0.01; ***, p≤0.001; ns, no significant difference (p>0.05) versus the control.
# (§4) Figure 8 Effect of proteasome inhibitors on Ala-AMC and Leu-AMC cleavage. HEK 293T cell extract or recombinant PSAP was treated with 10 µM of each of the proteasome inhibitors for 1 hour in addition to a 30 min pre-incubation without the substrate. Enzyme activity was determined by fluorescence measurement of AMC and expressed as percentage enzyme activity relative to the control without inhibitor. Panels A and B represent the effect of proteasome inhibitors on cleavage of Ala-AMC and Leu-AMC respectively, in HEK293T cell extract. […] Error bars show standard error of mean (n = 4). Statistical analysis was performed using Student’s t-test: *, p≤0.05; **, p≤0.01; ***, p≤0.001; ns, no significant difference (p>0.05) versus the control.
# [2] = system: HEK293T cell aminopeptidase activity (Leu-AMC cleavage); assay: Aminopeptidase assay with Leu-AMC in HEK293T cell extracts; type: biochemical, human; settings: HEK293T cell extract; for effect on cleavage of Leu-AMC: 10 µM inhibitor
# Experimental: as §1, §2, §3, §4
# [3] = target: T1, recombinant human puromycin-sensitive aminopeptidase (PSAP, rhNPEPPS) (Homo sapiens, UniProt P55786); assay: Cleavage of Leu-AMC and Ala-AMC by purified recombinant PSAP; type: biochemical; settings: for effect on cleavage of Ala-AMC by purified PSAP: 10 µM inhibitor
# T1 construct: purchased R&D Systems
# T1 sequence (P55786 whole entry): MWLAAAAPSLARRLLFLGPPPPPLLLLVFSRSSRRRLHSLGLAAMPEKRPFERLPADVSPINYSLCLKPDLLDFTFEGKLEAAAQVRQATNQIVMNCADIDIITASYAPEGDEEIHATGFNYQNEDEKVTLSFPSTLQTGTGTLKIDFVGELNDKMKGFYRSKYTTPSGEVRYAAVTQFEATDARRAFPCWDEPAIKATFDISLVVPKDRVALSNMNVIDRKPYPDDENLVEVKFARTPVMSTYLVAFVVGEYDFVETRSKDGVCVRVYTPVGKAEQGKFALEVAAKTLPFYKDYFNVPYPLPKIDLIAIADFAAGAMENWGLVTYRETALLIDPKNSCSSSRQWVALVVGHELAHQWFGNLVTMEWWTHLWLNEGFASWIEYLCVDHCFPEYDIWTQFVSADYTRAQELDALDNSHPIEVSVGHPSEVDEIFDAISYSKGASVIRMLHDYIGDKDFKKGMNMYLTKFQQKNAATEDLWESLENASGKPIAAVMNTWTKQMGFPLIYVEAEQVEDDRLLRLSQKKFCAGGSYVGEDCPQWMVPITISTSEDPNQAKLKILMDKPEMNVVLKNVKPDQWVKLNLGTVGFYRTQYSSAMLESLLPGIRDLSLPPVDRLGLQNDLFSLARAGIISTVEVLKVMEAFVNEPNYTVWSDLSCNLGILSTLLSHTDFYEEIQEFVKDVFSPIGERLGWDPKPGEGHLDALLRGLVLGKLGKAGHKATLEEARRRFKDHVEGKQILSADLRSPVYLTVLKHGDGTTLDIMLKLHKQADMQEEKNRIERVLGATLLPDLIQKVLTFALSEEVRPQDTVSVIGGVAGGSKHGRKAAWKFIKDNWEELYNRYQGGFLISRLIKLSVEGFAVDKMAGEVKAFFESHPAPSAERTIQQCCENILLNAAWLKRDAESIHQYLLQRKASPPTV
# Experimental: To measure the effect of inhibitors on cleavage of Leu-AMC and Ala-AMC by purified PSAP, recombinant human PSAP (rhNPEPPS, R&D Systems) was diluted 1∶2000 in Buffer 2 containing 0.1 mg/ml BSA. The enzyme was pre-incubated with the inhibitor and Buffers 1 or 2, followed by addition of 100 µM final concentration of Leu-AMC (to the mix containing Buffer 1) and Ala-AMC (to the mix containing Buffer 2). After incubation at 37°C for 1 hour, PSAP activity was quantified by fluorescence measurement of the substrate (380 nm excitation, 460 nm emission).
# as §3, §4
# HEK293T cells [4] = assay: Quantitative peptidomics (TMAB isotopic labels, LC-MS/MS) of inhibitor-treated HEK293T cells; type: cell-based, human; settings: HEK293T cells
# Experimental: (§5) HEK293T and SH-SY5Y cells were grown to 80–90% confluence in DMEM and RPMI supplemented with 10% fetal bovine serum and penicillin/streptomycin. A single plate of cells (150 mm×25 mm) was used for each group. At the start of the experiment, media were removed from the plates and cells were washed with DPBS (138 mM NaCl, 8.06 mM Na2HPO4, 2.67 mM KCl, 1.47 mM KH2PO4, 0.9 mM CaCl2 and 0.49 mM MgCl2). This was followed by addition of serum-free media containing the proteasome or aminopeptidase inhibitors, or 0.05% DMSO as a control for the inhibitors that were soluble in DMSO. Each experiment consisted of two control groups and two or three replicate groups of cells treated with one of the inhibitors. The cells were incubated at 37°C for 20 minutes, following which media containing the inhibitor was removed, cells were washed with DPBS, detached from the plate by scraping into DPBS (without trypsin), and centrifuged at 800×g for 5 min. The wash buffer was supplemented with the appropriate inhibitor at the same concentration as used for the treatment, thereby ensuring that the changes induced in peptide levels were not reversed during harvesting of cells due to possible dissociation of the reversible inhibitors. The wash time (including centrifugation) was 15 minutes, for a total treatment time of 35 minutes. After centrifugation, the cell pellet was resuspended in 1 ml of 80°C water and incubated in an 80°C water bath for 20 minutes to inactivate proteases. The mixture was again centrifuged (13,000×g, 30 min, 4°C) and was stored at −80°C overnight. For peptide extraction, the samples were thawed and centrifuged again. The lysate was subsequently cooled on ice and acidified with HCl to a final concentration of 10 mM. After 15 min incubation on ice, the lysate was centrifuged at 13,000×g for 30 min at 4°C. To the supernatant, 250 µL of dibasic sodium phosphate (0.4 M, pH 9.5) was added and the mixture was stored at −80°C until labeling.
# (§6) The labeling protocol has been earlier described in detail. Each group within an experiment (control/treated) was labeled with a different isotopic tag. The TMAB-NHS labels were dissolved in DMSO to a concentration of 400 µg/µL and 15 mg of label was used per 150 mm plate of cells. […] At the beginning, the pH of the peptide extract was adjusted to 9.5 with 1 M NaOH. Labeling was performed over 8 rounds; 4.69 µL of the label was added to the extract every 20 min. The pH was measured between each round and if necessary, brought back to 9.5 for the first five rounds. For rounds 6–8, the pH was not adjusted after the addition of the TMAB-NHS reagent. After the final round of label addition, the pH was adjusted to 9.5 again and the extracts were incubated at room temperature for 90 min. Thereafter, 30 µL of 2.5 M glycine was added to quench any unreacted label. Following 40 min incubation at room temperature, the labeled extracts for a single experiment were pooled and filtered through Amicon Ultracel-10 K units. It is important to ensure that only N-terminal amines and lysine side-chain amines of peptides are TMAB-labeled and not tyrosines. To hydrolyze any labeled tyrosine, 30 µL of a 2 M solution of hydroxylamine hydrochloride (pH 3.7) was added over three rounds to the pooled and filtered sample. The pH was measured after the addition of hydroxylamine and adjusted to 9.0 with 1 M NaOH. The samples were desalted through PepClean C-18 spin columns (Thermo Scientific, Rockford, IL, USA) by following manufacturer’s instructions. Peptides were eluted using 160 µL of 0.5% TFA and 70% acetonitrile, frozen at −80°C and then lyophilized in a vacuum centrifuge and stored at −80°C until analysis by mass spectrometry.
# (§7) The LC-MS/MS experiments were performed on a Synapt G2 mass spectrometer coupled to a NanoAcquity capillary liquid chromatography system (Waters Co., Milford, MA, USA).
# [5] = system: tripeptidyl peptidase 2 (TPP2); assay: Ala-Ala-Phe-AMC cleavage (TPP2 substrate) in HEK293T cell extracts; type: biochemical, human; settings: HEK293T cell extract, micromolar concentrations
# Experimental: as §1, §2
# Enzyme activity was determined by fluorescence measurement of AMC and expressed as percentage enzyme activity relative to the control lacking inhibitor. […]
# HEK293T cells [6] = settings: cited from earlier work
# SH-SY5Y cells = assay: Quantitative peptidomics (TMAB isotopic labels, LC-MS/MS) of inhibitor-treated SH-SY5Y cells; type: cell-based, human; settings: SH-SY5Y cells, 35 min; 2.5 µM MG132, 1 µM other inhibitors
# Experimental: as §5, §6, §7
# [7] = target: T2, proteasome (beta 5, chymotrypsin-like activity) in HEK293T cell extract (Homo sapiens, UniProt P20618+P28074); assay: Proteasome activity in HEK293T cell extracts with beta 5-selective substrate Suc-Leu-Leu-Val-Tyr-AMC; type: biochemical; settings: Suc-Leu-Leu-Val-Tyr-AMC, 30 min pre-incubation, 1 hour, read-out: IC50, inhibition of proteasome activity
# T2 construct: endogenous in cells; host or cells: HEK293T
# Experimental: as §1
# To measure proteasome activity, a 1∶50 dilution of the cell extract was pre-incubated with the inhibitor and Buffer 1 for 30 min, followed by addition of 100 µM final concentration of the proteasome substrate succinyl-Leu-Leu-Val-Tyr-7-amino-4-methylcoumarin (Suc-Leu-Leu-Val-Tyr-AMC). After incubation at 37°C for 1 hour, proteasomal activity was quantified by fluorescence measurement of the substrate (380 nm excitation, 460 nm emission).
# Figure 2 Inhibition of proteasome activity in HEK293T cells with various proteasome inhibitors. HEK293T cell extract was treated with increasing concentrations of the indicated compound for […] and incubation for 1 hour […]. Enzyme activity was determined by fluorescence measurement of AMC. The resulting activity is expressed as percent enzyme activity relative to the control reaction without inhibitor.
# [8] = 35 min, 2.5 µM MG132, 1 µM other inhibitors
structure (smiles),measurement,setting,value
CC(C)C[C@H](NC(=O)[C@@H](O)[C@H](N)Cc1ccccc1)C(=O)O [bestatin],inhibition of Ala-AMC cleavage,[1],> 80%
same,residual amount of activity,[1],~20%
same,Enzyme activity (% control with no inhibitor),"[1]; Ala-AMC, bestatin 500 µM, bortezomib 0",15.5±0.7 % control with no inhibitor
same,inhibition of Leu-AMC cleavage,[2],> 80%
COc1ccc(C[C@H](N)C(=O)N[C@H]2[C@@H](O)[C@H](n3cnc4c(N(C)C)ncnc43)O[C@@H]2CO)cc1 [puromycin],inhibition of Ala-AMC cleavage,[1],> 80%
same,residual amount of activity,[1],~20%
same,potency on purified PSAP versus HEK293T cell extract,[3]; Ala-AMC and Leu-AMC,comparable
same,inhibition of Leu-AMC cleavage,[2],> 80%
CC(C)C[C@H](NC(=O)CNC(=O)c1cc(Cl)ccc1Cl)B(O)O [MLN2238],effect on cleavage of Ala-AMC,[1],inhibit
same,effect on cleavage of Ala-AMC by purified PSAP,[3],inhibitory
same,effect on cleavage of Leu-AMC,[2],inhibit
same,change in levels of intracellular peptides (peptidome),HEK293T cells [4]; [8],the majority of peptides was greatly decreased
"CCCCNC(=O)[C@@H]1Cc2ccccc2N1C(=O)[C@@H](N)CC [butabindide, reference compound]",inhibition of Ala-Ala-Phe-AMC cleavage,[5],Approximately 50%
same,change in levels of intracellular peptides (peptidome),"HEK293T cells [4]; 100 µM bestatin methyl ester 75 min, 100 µM butabindide 35 or 75 min, bestatin",failed to substantially alter the peptide levels
CC[C@H](C)[C@H](NC(=O)[C@H]([C@@H](C)CC)N(C)C(C)=O)C(=O)N[C@H](C(=O)N[C@@H](CC(C)C)C(=O)[C@@]1(C)CO1)[C@@H](C)O [epoxomicin],change in levels of intracellular peptides (peptidome),"HEK293T cells [6]; HEK293T cells, 0.2 µM for 1 hour",the majority of peptides was greatly decreased
same,levels of peptides arising from cleavage at beta 1 sites,HEK293T cells [6]; cells treated for 1 hour with 2 µM,greatly elevated
CC(C)C[C@H](NC(=O)[C@H](CC(C)C)NC(=O)[C@H](CC(C)C)NC(=O)OCc1ccccc1)B(O)O [MG262],effect on cleavage of Ala-AMC,[1],inhibit
same,effect on cleavage of Ala-AMC by purified PSAP,[3],inhibitory
same,effect on cleavage of Leu-AMC,[2],inhibit
same,change in levels of intracellular peptides (peptidome),SH-SY5Y cells,changes that were generally similar to those caused by 500 nM bortezomib
same,change in levels of intracellular peptides (peptidome),HEK293T cells [4]; [8],changes that were generally similar to those caused by 500 nM bortezomib
"CC(C)[C@H](O)[C@@]12NC(=O)[C@H](C)[C@@H]1OC2=O [clasto-Lactacystin β-lactone, reference compound]",IC50,[7],~10 µM
same,change in levels of intracellular peptides (peptidome),HEK293T cells [4]; [8],the majority of peptides was greatly decreased
